The text below walks through data of article PMC5011932, “Comparative pharmacokinetics and pharmacodynamics of intravenous artelinate versus artesunate in uncomplicated Plasmodium coatneyi-infected rhesus monkey model” (Malaria Journal, 2016).

For data set [1] the following is noted: rhesus monkey, in vivo.
Method: (§1) These doses were chosen as the minimal effective doses (from previous model development and validation studies, unpublished data) and blood was collected for pharmacokinetic analysis. After a week wash-out and recovery period, P. coatneyi (1 mL of >50,000 parasitized RBCs per microlitre or 5 × 10^6 RBC with a 1 % parasitaemia) were inoculated from a donor monkey into all the monkeys. The treatment was initiated at day 6 after inoculation at a parasitaemia ≥3 % or >200,000 parasites μL^−1 when the cohort of animals was minimally symptomatic. Drugs were given for 3 days with a loading dose initially followed by ½ of the first dose on the 2nd and 3rd days.
(§2) Blood was collected for pharmacokinetic/pharmacodynamics (PK/PD) analysis after the first dose only due to rapid clearance of artemisinin derivatives. Heparinized blood was collected at 0, 5, 20, 40 min, 1, 3, and 6 h post-dose and plasma samples were separated within 2 h by centrifugation (1500g, 10 min). Aliquots of samples were made for simultaneous measurement by HPLC [16] and bioassay [14], and stored at −80 °C until analysis. All glassware was silanized before use with a 0.5 % aqueous solution (v/v) of Pierce Aquasil (Rockford, IL, USA) according to the manufacturer’s recommended procedure. Solid-phase extraction was performed on C-18 elution cartridge (3.0 ml, J.T. Baker Co.) using a VAC ELUTE SPS24 sample processing station (Analytichem International, Harbour City, CA, USA). The cartridge was preconditioned by sequential washing with 2.5 ml acetonitrile, 2.5 ml methanol and 2.5 ml water. One ml of distilled water was added to the cartridge before adding plasma sample (0.5 ml). Then, the cartridge was washed with 2.5 ml distilled water, 2.5 ml of 0.05 % H3PO4 (pH 4.5) and 2.5 ml of 20 % acetonitrile and completely dried by closing the vacuum for 15 min. The analytes were collected by eluting with 0.5 ml methanol three times and then with 0.5 ml 90:10 n-butyl chloride: ethyl acetate twice. The organic phases were pooled. The combined organic phases were then evaporated to dryness under a stream of nitrogen at room temperature. Extraction residues were reconstituted with 50:50 ethanol: water (0.3 ml), at least 16 h before injection. The injection volume was 100 µl for all samples.
(§3) The plasma concentration of parent drugs, AL and AS, and their primary metabolites, DHA and 2-hydroxyartelinate (OHAL) respectively, were measured by HPLC with electrochemical detection in reductive mode (HPLC-ECD) [16], which was the only method for artemisinin compounds then (Additional files 1 and 2).
(§4) HPLC with reductive electrochemical detection was performed using a model BAS 200B liquid chromatography (Bioanalytical Systems, Inc., West Lafayette, Indiana, USA). A Nova-Pak® C18 (3.9 × 150 mm, Waters Corporation, Milford, MA, USA) was used with 40 % acetonitrile in sodium acetate buffer (pH 3.6) as mobile phase. Detection was performed using a thin dual-layer glassy carbon electrode run in parallel mode at a potential of −1.0 V versus Ag/AgCl. The system was operated at the following temperatures: mobile phase 35 °C, column and detector oven 30 °C, cell 31 °C with the flow rate of 1.5 mL min^−1. Artemisinin (ART) was used as an internal standard. Samples were injected via Gilson model 231 XL sampling injector equipped with a 100 µL loop, a Gilson model 401 dilutor/pipettor, a sampler controller keypad (Gilson Medical Electronics, Middleton, WI, USA), and a Valco electrically actuated switching valve (Valco Instrument Co. Inc) was used. This system automatically deoxygenated and injected sample, which permits the high sample throughput associated with automated injection. Data were acquired and analysed using a Millennium^32 Chromatography Manager (Waters Corporation, Milford, MA, USA).
A short description of data set [2]: Plasma pharmacokinetics by HPLC-ECD after IV dose in rhesus monkeys. To be noted: for %AUC20 / concentration at 0.08 h / concentration at 0.33 h / concentration at 0.67 h / concentration at 1 h / concentration at 3 h / concentration at 6 h / AUC(0-inf) / Cmax / half-life: mean; for concentration at 0.08 h / concentration at 0.33 h / concentration at 0.67 h / concentration at 1 h / concentration at 3 h / concentration at 6 h / AUC(0-t) / AUC(0-inf) / Cmax / half-life: rhesus monkey, plasma; for concentration at 0.08 h / concentration at 0.33 h / concentration at 0.67 h / concentration at 1 h / concentration at 3 h / concentration at 6 h: intravenous, 8 mg kg^-1, Plasma concentration; for concentration at 0.08 h: after IV AL 11.8 or AS 8.0 mg/kg; for AUC(0-t) / AUC(0-inf) / Cmax / half-life: iv, 8 mg/kg; for AUC(0-t): AUC 0-20, mean; for Cmax: IV AL/Lys 11.8 or AS/Na 8 mg/kg, analyte = label; for half-life: t 1/2, z.
Method: as §1, §2, §3, §4

2-hydroxyartelinate [OHAL]: in data set [1], the “t1/2, metabolite (M)” value is 42.2 min.

On to `C[C@H]1[C@@H](O)O[C@@H]2O[C@@]3(C)CC[C@H]4[C@H](C)CC[C@@H]1[C@@]24OO3` [DHA, dihydroartemisinin], for which, in data set [2] (after IV AS), the “Time of highest level post-dose” value is reported as 5 min. Also, in data set [2] (healthy rhesus), the “%AUC20” value is recorded as 23.8%, the concentration at 0.08 h is 7.89 µM, the concentration at 0.33 h came to 6.75 µM and the concentration at 0.67 h stood at 4.51 µM. In data set [2] (healthy rhesus), this molecule showed a concentration at 1 h of 3.52 µM, a concentration at 3 h of 0.31 µM, a concentration at 6 h of 0 nM and an AUC(0-t) of 2.17 µM·h. Further, in data set [2] (healthy rhesus), the area under the curve AUC(0-inf) was 9.28 µM·h, the maximum concentration (Cmax) was 8.1 µM and the half-life came to 35.9 min. In data set [2] (infected rhesus), the “%AUC20” value is recorded as 27.0%, the concentration at 0.08 h worked out at 6.74 µM, the concentration at 0.33 h worked out at 5.92 µM and the concentration at 0.67 h worked out at 4.21 µM. In data set [2] (infected rhesus), the concentration at 1 h was 2.68 µM, the concentration at 3 h was 0.16 µM, the concentration at 6 h is 0 nM and the AUC(0-t) was 1.87 µM·h. In data set [2] (infected rhesus), this molecule had an AUC(0-inf) of 7.45 µM·h and a half-life of 30 min. Besides, the Cmax in data set [2] (P. coatneyi infected rhesus) was determined as 6.85 µM.

For orientation: AUC(0-t) means exposure summed from dosing to a finite time, without extrapolation to infinity. Read a high AUC(0-t) as high exposure. Broadly, the AUC(0-inf) is the area under the concentration-time curve extrapolated to infinity. Read a low AUC(0-inf) as less exposure. Broadly, the Cmax is the peak of the concentration-time curve. Broadly, the half-life is how long it takes for the measured level to halve. A low value points to fast loss.
